From patent US20140106342A1, “METHOD OF ASSAYING DNA TOPOISOMERASES AND DNA BINDING PROTEINS USING HIGH THROUGHPUT SCREENING” (priority 2011, published 2014)
Positions count from the first letter of the chain named. Where two headings read alike, the source gives them in different places. *1 amine or outer side, *2 acyl side, *3 side chain or, on linkers, in order; H or OH if unused. Where a SMILES comes first, the peptide text is derived from it. Bridges are numbered along the chain shown (N, C = ends). Roman numbers before positions name the chains, in order. [ ]: non-standard residue; d: D form. Actinocin(9to1) = Cc1c2oc3c(C)ccc(C(=O)[*:1])c3nc-2c(C(=O)[*:2])c(N)c1=O; NMeV = CN[C@H](C(=O)O)C(C)C; Sar = CNCC(=O)O

How the values were obtained:
Y723F topo I mutant = target: T1, Y723F topo I mutant (Homo sapiens, UniProt P11387, Y723F); assay: Solid phase assay with catalytically inactive Y723F topo I mutant; type: biochemical; conditions: highest input of protein
T1 construct: purchased TopoGEN, Inc. (Port Orange, Fla.); host or cells: baculovirus expression (Sf9)
T1 sequence (P11387 1-765 Y723F): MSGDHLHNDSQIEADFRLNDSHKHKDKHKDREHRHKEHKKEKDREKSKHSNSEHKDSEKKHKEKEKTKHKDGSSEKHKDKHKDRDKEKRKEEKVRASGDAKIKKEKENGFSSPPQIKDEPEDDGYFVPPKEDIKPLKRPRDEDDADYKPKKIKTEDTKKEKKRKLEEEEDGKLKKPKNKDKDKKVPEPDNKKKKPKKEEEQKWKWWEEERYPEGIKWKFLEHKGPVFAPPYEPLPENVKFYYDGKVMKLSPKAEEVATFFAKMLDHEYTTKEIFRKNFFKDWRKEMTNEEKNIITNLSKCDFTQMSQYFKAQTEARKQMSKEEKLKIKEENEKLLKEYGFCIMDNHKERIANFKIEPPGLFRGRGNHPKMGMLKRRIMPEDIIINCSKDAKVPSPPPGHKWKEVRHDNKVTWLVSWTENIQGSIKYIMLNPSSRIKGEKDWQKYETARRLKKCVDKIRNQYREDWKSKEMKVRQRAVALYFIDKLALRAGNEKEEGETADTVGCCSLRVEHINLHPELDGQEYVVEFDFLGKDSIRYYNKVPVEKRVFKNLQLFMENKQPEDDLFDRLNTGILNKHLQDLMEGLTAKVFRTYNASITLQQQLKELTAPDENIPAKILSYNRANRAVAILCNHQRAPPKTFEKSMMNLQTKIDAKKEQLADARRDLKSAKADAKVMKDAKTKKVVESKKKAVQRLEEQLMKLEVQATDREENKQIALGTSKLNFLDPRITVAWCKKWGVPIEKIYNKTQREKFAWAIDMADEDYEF
Experimental: The unbound enzyme was removed by aspirating off the initial binding solution followed by three washes (about 200 uL each) with cold PBS containing about 0.05% Tween-20 (PBS-T). […] Drugs were dissolved in DMSO and the final DMSO concentration in the reaction never exceeded about 1%. Reactions were incubated for about 1 hr at about 37° C. and terminated by the addition of about 0.1 vol of about 1% SDS (vol:vol) followed by a about 5 min incubation at about 37° C.

human Topo I [1] = target: T2, human Topo I (Homo sapiens, UniProt P11387); assay: Topo I cleavage complex formation / liquid reactions analysed on agarose-ethidium bromide gel
T2 sequence (P11387 1-765): T1 sequence (P11387 1-765 Y723F) with F723Y

human Topo I [2] = target: T2, human Topo I; assay: Solid phase topo I HTS assay (His-tag topo I on nickel coated plates, pHOT1 DNA retention by Picogreen fluorescence); type: biochemical; set-up: The intact human topo I gene was cloned as a His-tag gene; purchased TopoGEN, Inc. (Port Orange, Fla.); host or cells: baculovirus-infected Spodoptera frugiperda Sf9 cells; conditions: for fold increase in DNA binding to wells due to CPT: 96 well
Experimental: FIG. 8 is a flowchart depicting the model for solid phase Topo I screening. […] Free enzyme is washed out and pHOT1 supercoiled DNA is added in a topo I assay buffer. […] Free DNA is then washed out and the relative fluorescence is measured using Picogreen staining. […] The results are expressed as an “HTS Ratio” corresponding to the RFU of experimental to RFU of negative controls (no CPT).
The unbound enzyme was removed by aspirating off the initial binding solution followed by three washes (about 200 uL each) with cold PBS containing about 0.05% Tween-20 (PBS-T). […] Drugs were dissolved in DMSO and the final DMSO concentration in the reaction never exceeded about 1%. Reactions were incubated for about 1 hr at about 37° C. and terminated by the addition of about 0.1 vol of about 1% SDS (vol:vol) followed by a about 5 min incubation at about 37° C. The reaction mixture was next aspirated and washed three times with about 200 uL PBS-T. Picogreen (about 100 ug/mL) was diluted in TE (about 1:400) and about 200 µl was added to each well followed by incubation in the dark for about 5 min. The relative fluorescence was measured at about 485 nm excitation and about 525 nm emission wavelength using a Tecan reader.
In step 5, the readout (relative fluorescent units or RFU retained in the wells) is analyzed based on what is referred to as the ‘HTS Ratio’ (RFU Experimental/RFU in negative control).
Free enzyme is washed out and pHOT1 supercoiled DNA is added in a topo I assay buffer. […] Free DNA is then washed out and the relative fluorescence is measured using Picogreen staining. […] The results are expressed as an “HTS Ratio” corresponding to the RFU of experimental to RFU of negative controls (no CPT).

pHOT1 DNA = assay: Nicking of pHOT1 DNA in the absence of topo I
Experimental: . This may explain why some bifunctional alkylators are picked up by the assay. […]. Thus, about 5 compounds out of about 50 scored as potential topo I IFP at about 100 uM input of purified test drug (single asterisk, FIG. 10). A relatively high input of test drug concentrations to amplify false positives was; however, in a typical HTS experiment the concentrations would be much lower and would detect far fewer false leads. […].

[3] = test drug about 100 uM, about 1.0 = minus CPT control, solid phase

In the case of `CC[C@@]1(O)C(=O)OCc2c1cc1n(c2=O)Cc2cc3ccccc3nc2-1` [CPT, Camptothecin], the “CPT stimulation of DNA binding with mutant protein” value (Y723F topo I mutant) is reported as “did not display any CPT stimulation”, the “time for CPT induced complexes to reach a maximal stoichiometric value” (human Topo I [1]; in solution) is reported as “within a few minutes” and the “magnitude of the increase in +CPT controls” value (human Topo I [2]; 96 well format (comparison)) is reported as “about 2.6 fold”. For the same compound, the “magnitude of the increase in +CPT controls” value (human Topo I [2]; 384 well format) was “about 1.7 fold”, the “fraction of well-bound DNA that is nicked form II” value (human Topo I [2]; CPT reactions, about 512 units topo I, about 5 uM CPT, no-CPT about 20%) was “about 70%” and the “fraction of well-bound DNA that is relaxed (Ir)” value (human Topo I [2]; CPT reactions, about 512 units topo I, about 5 uM CPT, no-CPT about 80%) was “about 30%”. For the same compound, the “drug concentration dependency of solid phase readout” value (human Topo I [2]; CPT titration, about 512 units topo I, about 100 ng DNA) was “did not display drug concentration dependency”, the “magnitude of the increase in form II DNA in +CPT wells over no drug controls” value (human Topo I [2]; DNA recovered from wells, gel analysis) was 2-3 fold and the “fold increase in DNA binding to wells due to CPT” value (human Topo I [2]; about 16-64 units topo I, about 5 uM CPT) was 1.2-2 fold. For the same compound, the “fold increase in DNA binding to wells due to CPT” value (human Topo I [2]; about >100 units topo I, about 5 uM CPT) was 2.5-2.7 fold, the “mean relative fluorescence, +CPT” value (human Topo I [2]; high topo I inputs (about 1024, about 512 units), SD +/- about 153, -CPT mean about 1181) was “about 2877” and the “time course of CPT induced complexes” value (human Topo I [2]; solid phase) was “continue to accumulate over several hours”. The “relative fluorescence (RFU) of a typical reaction, + control” value (human Topo I [2]; typical reaction, - control about 2000) was “about 4000 fluorescent units”.
For `Cc1c2oc3c(C)ccc(C(=O)N[C@@H]4C(=O)N[C@H](C(C)C)C(=O)N5CCC[C@H]5C(=O)N(C)CC(=O)N(C)[C@@H](C(C)C)C(=O)O[C@@H]4C)c3nc-2c(C(=O)N[C@@H]2C(=O)N[C@H](C(C)C)C(=O)N3CCC[C@H]3C(=O)N(C)CC(=O)N(C)[C@@H](C(C)C)C(=O)O[C@@H]2C)c(N)c1=O` [Dactinomycin] (I: T[dV]P[Sar][NMeV] / II: T[dV]P[Sar][NMeV]; ester I:1-I:C, II:1-II:C; linker I:N-II:N via Actinocin(9to1)), the “HTS Ratio (RFU experimental / RFU negative control, no CPT)” value (human Topo I [2]; [3]) was “about 1.4”.
For `CCc1c2c(nc3ccc(OC(=O)N4CCC(N5CCCCC5)CC4)cc13)-c1cc3c(c(=O)n1C2)COC(=O)[C@]3(O)CC` [Irinotecan], the “HTS Ratio (RFU experimental / RFU negative control, no CPT)” value (human Topo I [2]; [3]) was “about 1.4”.
With `N[C@@H](Cc1ccc(N(CCCl)CCCl)cc1)C(=O)O` [Melphalan] the “HTS Ratio (RFU experimental / RFU negative control, no CPT)” value (human Topo I [2]; [3]) was 1.2-1.3.
With `CNNCc1ccc(C(=O)NC(C)C)cc1` [Procarbazine] the “HTS Ratio (RFU experimental / RFU negative control, no CPT)” value (human Topo I [2]; [3]) was “about 1.65”.
`O=C(c1ccc(OCCN2CCCCC2)cc1)c1c(-c2ccc(O)cc2)sc2cc(O)ccc12` [Raloxifene] was tested, and the “HTS Ratio (RFU experimental / RFU negative control, no CPT)” value (human Topo I [2]; test drug about 100 uM, about 1.0 = minus CPT control, solid phase, listed as Reloxifene) was “about 2.0”.
`CC/C(=C(\c1ccccc1)c1ccc(OCCN(C)C)cc1)c1ccccc1` [Tamoxifen] was tested, and the “induction of topo I cleavages” value (human Topo I [1]; data not shown, less than with CPT) was “induced topo I cleavages”.
In the case of `Oc1ncc(N(CCCl)CCCl)c(O)n1` [Uracil mustard], the “single strand DNA nicks in pHOT1 DNA” value (pHOT1 DNA) is reported as “induce single strand DNA nicks” and the “HTS Ratio (RFU experimental / RFU negative control, no CPT)” value (human Topo I [2]) is reported as “about 1.1”.
`O=C1c2c(O)ccc(O)c2C(=O)c2c(NCCNCCO)ccc(NCCNCCO)c21` [mitoxantrone] was tested, and the “effect on DNA binding to bound topo I” value (human Topo I [2]; solid phase HTS) was “strongly reduce DNA binding”.
